# Measurements from PMC7875557, “Development and optimization of sitagliptin and dapagliflozin loaded oral self-nanoemulsifying formulation against type 2 diabetes mellitus” (Drug Delivery, 2020).
# Tests used:
# [1] = DPPH free radical scavenging assay
# Method: For antioxidant activity, DPPH (2, 2-diphenyl-1-picrylhydrazyl) free radical scavenging assay was employed. This method was carried out as previously described by Brand-Williams et al. ([1995]). The method quantifies free radical scavenging capacity of the investigated samples. DPPH is a molecule that contains a stable free radical. In the presence of an antioxidant which is able to donate an electron to DPPH, the change in the absorbance at 517 nm is followed spectrophotometrically (UV mini-1240, Shimadzu, Japan). Various concentrations of […] (10, 50, 100, 500, and 1000 μg/mL) were used. The assay mixture was made up of a total volume of 1 mL, containing 500 μL of the sample, 125 μL of the prepared DPPH, and 375 μL of methanol. As positive control, ascorbic acid was used. The samples were incubated for 30 min at 25 °C, after which the decrease in absorbance was measured at λ = 517 nm. Radical scavenging activity of the samples were calculated using the following equation below: (1) % radical scavenging activity=(Abs control − Abs sample/Abs control) ×100
# [2] = β-carotene–linoleic acid (bleaching) assay; details: 1000 µg
# Method: The antioxidant activity of the samples were evaluated using the β-carotene bleaching method described by Velioglu et al. ([1998]) with modifications. One milliliter (1 mL) of a 0.2 mg/mL solution of β -carotene in chloroform was added to flasks containing 0.2 mL of Tween 20 and 0.02 mL of linoleic acid. The chloroform was removed in a rotary evaporator at 40 °C. The resulting mixture was then diluted with 100 mL of distilled water and mixed for approximately 2 min to form an emulsion. Similarly, another mixture was prepared without β-carotene to use as a blank. A control containing 0.2 mL of 80% (v/v) methanol was also used instead of sample. Aliquot of the emulsion (5 mL) was added to 0.2 mL of the sample at 1 mg/mL. As a standard, Rutin (1 mg/mL) was used. The tubes were incubated in a water bath at 40 °C for 2 h. Absorbance was measured at 470 nm at 15 min intervals, using a UV–visible spectrophotometer (UV mini-1240, Shimadzu, Japan) and the antioxidant activity was calculated from the equation below: (2) % of antioxidant activity= (Abs0 − Abst)/(Abs0° − Abst°) ×100 where, Abs0 and Abs0° represented the absorbance values measured at zero time of incubation for sample extract and control, respectively. Abst and Abst° are the absorbance values at t = 120 min for samples and control, respectively.
# [3] = Equilibrium solubility (shake flask); format: physicochemical; details: for Solubility in Water (100%): 100% water
# Method: […] The samples were prepared by adding an excess amount of SN and DN to the formulations, which was then thoroughly agitated with a vortex mixer to ensure adequate mixing. Three replicates were taken for each formulation. The samples for the solubility experiments were analyzed using in-house developed UHPLC method by dissolving each of the formulations with an appropriate solvent.
# Diabetic mice (STZ) = assay: Anti-diabetic study in streptozotocin-induced diabetic mice; format: in vivo, Swiss albino mice; details: DN 6 mg/kg, SN 10 mg/kg; for Glucose level 0 h: STZ (60 mg/kg) diabetic mice, before dose; for Glucose level 0 h / Glucose level 2 h: Mean ± SEM, n = 3; for Glucose level decrease / Glucose level 2 h / % Inhibition of glucose level: STZ diabetic mice; for Glucose level decrease: 0 h to 2 h; for Glucose level 2 h / % Inhibition of glucose level: 2 h after dose
# Method: Male Swiss albino mice (20–25 g) roughly of same age group were procured from the Experimental Animal Care Center, College of Pharmacy, King Saud University, with the approval Clearance No. KSU-SE—19-105 (20th November 2019) by the Ethical committee. The animals used in this study were kept at 22 °C temperature by maintaining 55% humidity and light/dark (12/12 h) conditions. They were provided free access to Purina chow and drinking water ad libitum. The […] were initially acclimatized for seven days prior to being used for the anti-diabetic studies.
# Diabetes was induced overnight in fasted mice by single intraperitoneal (IP) injection of 60 mg/kg of streptozotocin (STZ) that was freshly dissolved in 0.1 M cold citrate buffer at pH 4.5. After 72 h of STZ administration, blood was collected from the animals and plasma glucose levels were examined. Animals that were confirmed diabetic by the elevated plasma glucose levels (>200 mg/dl) were used for the experiment. The animals were then randomly assigned into seven groups of three animals and received the following treatments: Group I: Normal control mice treated with Normal saline; Group II: Diabetic control mice treated with Normal saline; Group III: Diabetic mice treated with thymoquinone 5 mg/kg (IP); Group IV: Diabetic mice treated with DN 6 mg/kg (IP); Group V: Diabetic mice treated with SN 10 mg/kg (IP); Group VI: Diabetic mice treated with DN 6 mg/kg (IP) and SN 10 mg/kg (IP); Group VII: Diabetic mice treated with marketed product Dapazin® 6 mg/kg (IP).
# [4] = In vivo oral bioavailability / pharmacokinetic study; details: male, Wister, rat, plasma, 6 mg/kg; rats, after oral administration; read-out: Time to peak plasma levels
# Method: Male rats (Wister, 200–220 g) were obtained from Laboratory Animal Center of pharmacy college, KSU. The rats were randomly allocated into two groups, each group consisted of six rats: the representative SNEDDS [F1, BSO/CMCM/CrEL (15/35/50%w/w)] (group A) and marketed drug (group B). The animals were fasted for 12 h prior to the oral administration of SNEDDS of DN (6 mg/kg rat). The experimental procedures were carried out in accordance with the principles of National Institute of Health Guide for the Care and Use of Laboratory Animals (NIH Publications No. 80–23; 1996) as well as the animal facilities guidelines from the Ethical committee of Experimental Animal Care Center, College of Pharmacy, King Saud University (Clearance No. KSU-SE—19-105; 20th November 2019). […]
# In vivo animal studies were performed using only DN in the dose and SN was not included due to the different pharmacokinetic features of the SN and DN. […] The concentration of DN in plasma was determined by UHPLC as follow: A 775 μL of methanol was added to 225 μL aliquot of plasma. […] The nonlinear pharmacokinetic parameters such as Cmax, Tmax, and AUC(0–∞) were determined.
# The pharmacokinetic assessment was done after oral administration on the basis of DN concentrations in the plasma samples of the rat. […] This was vortexed and transferred to an auto sampler vial to be analyzed in the UHPLC system. […]
# SGLT2 = details: ref Santos et al., 2017, Wilding et al.; cited from earlier work
smiles,measurement,setting,value
O=C1O[C@H]([C@@H](O)CO)C(O)=C1O [Ascorbic acid],Radical scavenging activity,[1]; 10 µg,33.7 ± 3.5%
same,Radical scavenging activity,[1]; 50 µg,74.1 ± 1.3%
same,Radical scavenging activity,[1]; 100 µg,85.6 ± 3.2%
same,Radical scavenging activity,[1]; 500 µg,88.7 ± 2.7%
same,Radical scavenging activity,[1]; 1000 µg,91.7 ± 3.4%
C[C@@H]1O[C@@H](OC[C@H]2O[C@@H](Oc3c(-c4ccc(O)c(O)c4)oc4cc(O)cc(O)c4c3=O)[C@H](O)[C@@H](O)[C@@H]2O)[C@H](O)[C@H](O)[C@H]1O [Rutin],Total antioxidant activity,[2],93.1 ± 1.2%
"N[C@@H](CC(=O)N1CCn2c(nnc2C(F)(F)F)C1)Cc1cc(F)c(F)cc1F [Sitagliptin, sitagliptin]",Solubility in Water (100%),[3],3.62 ± 0.11 mg/g
same,Loading of SN in the anhydrous SNEDDS relative to aqueous solubility,[3]; from equilibrium solubility of diluted formulations,> 400%
same,Glucose level 0 h,Diabetic mice (STZ),381.33 ± 11.25 mg/dL
same,Glucose level decrease,Diabetic mice (STZ),208 mg/dL
same,Glucose level 2 h,Diabetic mice (STZ),173.33 ± 7.53 mg/dL
same,% Inhibition of glucose level,Diabetic mice (STZ); listed as SN,54.54%
same,% Inhibition of glucose level,Diabetic mice (STZ); listed as SN (Pure),54.54↓ %
"CCOc1ccc(Cc2cc([C@@H]3O[C@H](CO)[C@@H](O)[C@H](O)[C@H]3O)ccc2Cl)cc1 [Dapagliflozin, dapagliflozin]",Solubility in Water (100%),[3],1.48 ± 0.14 mg/g
same,Glucose level 0 h,Diabetic mice (STZ),362.00 ± 4.93 mg/dL
same,Glucose level decrease,Diabetic mice (STZ),143 mg/dL
same,Glucose level 2 h,Diabetic mice (STZ),219.00 ± 7.57 mg/dL
same,% Inhibition of glucose level,Diabetic mice (STZ); listed as DN,39.50%
same,% Inhibition of glucose level,Diabetic mice (STZ); listed as DN (pure),39.50↓ %
same,Tmax,[4],≤ 4 h
same,Selectivity for SGLT2 over SGLT1,SGLT2,1200 fold
